Measurements as given in patent US20100152215A1, “METHODS OF IDENTIFYING ACTIVATORS OF LYN KINASE” (MELIOR PHARMACEUTICALS I, INC., priority 2007, published 2010).

Legend:
Experiment in all cases: kinase screen for inhibition or activation
Assay type in all cases: biochemical
[1] = test system: AMPK; settings: 10 μM, positive = activation, negative = inhibition
Protocol: (§1) A kinase screen was conducted in which Compound 102 (10 μM) was screened against 49 kinases for inhibition or activation. Any kinase that was activated or inhibited by at least 20% was considered to be a significant effect. Of the 49 kinases screened, Lyn kinase was activated by 51%. In a repeat experiment, Lyn kinase activity was increased by 57%.

[2] = biological target: Abl (Homo sapiens, UniProt P00519); settings: 10 μM
Protocol: as §1

[3] = biological target: Akt1 (Homo sapiens, UniProt P31749); settings: 10 μM
Protocol: as §1

[4] = biological target: Akt2 (Homo sapiens, UniProt P31751); settings: 10 μM
Protocol: as §1

[5] = biological target: AurA (Homo sapiens, UniProt O14965); settings: 10 μM
Protocol: as §1

[6] = biological target: BTK (Homo sapiens, UniProt Q06187); settings: 10 μM
Sequence of BTK (Q06187 whole entry, species assumed): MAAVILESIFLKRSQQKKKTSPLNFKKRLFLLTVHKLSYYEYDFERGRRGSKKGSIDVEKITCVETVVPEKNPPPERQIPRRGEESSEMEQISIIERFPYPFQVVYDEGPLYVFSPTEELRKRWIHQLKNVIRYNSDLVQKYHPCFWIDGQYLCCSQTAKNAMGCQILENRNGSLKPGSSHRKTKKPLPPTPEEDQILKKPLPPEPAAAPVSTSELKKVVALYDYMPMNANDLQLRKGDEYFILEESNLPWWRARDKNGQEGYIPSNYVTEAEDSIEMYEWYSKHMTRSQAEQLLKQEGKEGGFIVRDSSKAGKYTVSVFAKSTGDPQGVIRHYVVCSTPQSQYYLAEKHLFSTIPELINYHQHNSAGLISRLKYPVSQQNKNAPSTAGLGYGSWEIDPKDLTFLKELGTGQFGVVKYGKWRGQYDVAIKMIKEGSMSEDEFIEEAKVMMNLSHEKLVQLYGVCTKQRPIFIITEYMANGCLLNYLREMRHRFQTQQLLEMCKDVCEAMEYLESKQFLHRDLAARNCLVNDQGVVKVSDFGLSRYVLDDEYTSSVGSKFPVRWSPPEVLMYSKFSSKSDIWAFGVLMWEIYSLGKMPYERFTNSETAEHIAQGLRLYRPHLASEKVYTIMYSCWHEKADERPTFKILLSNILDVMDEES
Protocol: as §1

[7] = biological target: CDK2/cyclinA (Homo sapiens, UniProt P24941); settings: 10 μM
Protocol: as §1

[8] = biological target: CHK1 (Homo sapiens, UniProt O14757); settings: 10 μM
Protocol: as §1

[9] = biological target: CHK2 (Homo sapiens, UniProt O96017); settings: 10 μM
Protocol: as §1

[10] = biological target: CK1d (Homo sapiens, UniProt P48730); settings: 10 μM
Protocol: as §1

[11] = biological target: CaMK2a (Homo sapiens, UniProt Q9UQM7); settings: 10 μM
Protocol: as §1

[12] = biological target: CaMK4 (Homo sapiens, UniProt Q16566); settings: 10 μM
Protocol: as §1

[13] = biological target: EphA2 (Homo sapiens, UniProt P29317); settings: 10 μM
Sequence of EphA2 (P29317 24-976, species assumed): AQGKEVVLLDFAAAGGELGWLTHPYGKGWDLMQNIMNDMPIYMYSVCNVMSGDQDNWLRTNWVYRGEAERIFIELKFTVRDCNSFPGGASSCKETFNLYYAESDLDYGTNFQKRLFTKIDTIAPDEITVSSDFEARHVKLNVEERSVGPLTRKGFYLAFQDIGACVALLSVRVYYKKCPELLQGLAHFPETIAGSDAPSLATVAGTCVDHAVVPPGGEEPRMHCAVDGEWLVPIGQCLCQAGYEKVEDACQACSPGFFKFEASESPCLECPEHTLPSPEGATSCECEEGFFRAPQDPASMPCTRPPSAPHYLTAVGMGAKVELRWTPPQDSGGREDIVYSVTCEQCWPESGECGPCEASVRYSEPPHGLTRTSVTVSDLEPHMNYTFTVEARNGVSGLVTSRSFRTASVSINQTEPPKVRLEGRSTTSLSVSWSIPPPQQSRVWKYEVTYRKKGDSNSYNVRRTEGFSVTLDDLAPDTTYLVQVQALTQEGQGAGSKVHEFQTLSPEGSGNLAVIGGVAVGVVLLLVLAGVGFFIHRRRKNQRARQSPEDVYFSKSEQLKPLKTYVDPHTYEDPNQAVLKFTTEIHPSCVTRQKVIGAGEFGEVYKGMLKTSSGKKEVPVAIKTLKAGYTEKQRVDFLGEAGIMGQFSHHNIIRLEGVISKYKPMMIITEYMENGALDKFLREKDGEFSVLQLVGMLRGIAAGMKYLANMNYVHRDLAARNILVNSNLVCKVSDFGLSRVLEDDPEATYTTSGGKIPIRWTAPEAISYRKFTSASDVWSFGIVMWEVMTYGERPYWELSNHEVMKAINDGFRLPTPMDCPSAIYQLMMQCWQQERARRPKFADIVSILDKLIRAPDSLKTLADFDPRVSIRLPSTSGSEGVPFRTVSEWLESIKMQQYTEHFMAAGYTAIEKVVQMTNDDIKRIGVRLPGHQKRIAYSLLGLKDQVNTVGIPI
Protocol: as §1

[14] = biological target: FGFR3 (Homo sapiens, UniProt P22607); settings: 10 μM
Sequence of FGFR3 (P22607 23-806, species assumed): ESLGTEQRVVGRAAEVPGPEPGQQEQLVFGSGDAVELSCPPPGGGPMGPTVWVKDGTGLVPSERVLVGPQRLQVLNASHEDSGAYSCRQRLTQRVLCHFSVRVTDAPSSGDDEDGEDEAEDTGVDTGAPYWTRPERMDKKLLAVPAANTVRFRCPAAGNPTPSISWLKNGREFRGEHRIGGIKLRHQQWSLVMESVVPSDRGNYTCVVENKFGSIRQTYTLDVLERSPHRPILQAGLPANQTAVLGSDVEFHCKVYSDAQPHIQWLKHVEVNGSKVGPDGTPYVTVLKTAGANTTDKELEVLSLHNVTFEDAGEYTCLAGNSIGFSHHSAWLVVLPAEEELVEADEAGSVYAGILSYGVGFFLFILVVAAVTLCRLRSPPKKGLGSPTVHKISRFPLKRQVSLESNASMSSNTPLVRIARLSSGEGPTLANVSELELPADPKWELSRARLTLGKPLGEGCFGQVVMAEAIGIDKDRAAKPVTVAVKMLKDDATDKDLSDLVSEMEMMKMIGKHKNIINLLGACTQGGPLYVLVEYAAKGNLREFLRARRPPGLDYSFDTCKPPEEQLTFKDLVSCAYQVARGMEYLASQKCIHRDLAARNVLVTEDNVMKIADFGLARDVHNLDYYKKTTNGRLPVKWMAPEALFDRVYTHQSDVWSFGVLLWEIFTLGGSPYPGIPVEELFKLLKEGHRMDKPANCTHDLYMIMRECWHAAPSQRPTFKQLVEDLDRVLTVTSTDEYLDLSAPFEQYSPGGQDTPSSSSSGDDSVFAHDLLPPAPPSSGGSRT
Protocol: as §1

[15] = biological target: Flt3 (Homo sapiens, UniProt P36888); settings: 10 μM
Protocol: as §1

[16] = biological target: Fyn (Homo sapiens, UniProt P06241); settings: 10 μM
Protocol: as §1

[17] = biological target: GSK3b (Homo sapiens, UniProt P49841); settings: 10 μM
Protocol: as §1

[18] = biological target: IGF1R (Homo sapiens, UniProt P08069)
Sequence of IGF1R (P08069 31-1367, species assumed): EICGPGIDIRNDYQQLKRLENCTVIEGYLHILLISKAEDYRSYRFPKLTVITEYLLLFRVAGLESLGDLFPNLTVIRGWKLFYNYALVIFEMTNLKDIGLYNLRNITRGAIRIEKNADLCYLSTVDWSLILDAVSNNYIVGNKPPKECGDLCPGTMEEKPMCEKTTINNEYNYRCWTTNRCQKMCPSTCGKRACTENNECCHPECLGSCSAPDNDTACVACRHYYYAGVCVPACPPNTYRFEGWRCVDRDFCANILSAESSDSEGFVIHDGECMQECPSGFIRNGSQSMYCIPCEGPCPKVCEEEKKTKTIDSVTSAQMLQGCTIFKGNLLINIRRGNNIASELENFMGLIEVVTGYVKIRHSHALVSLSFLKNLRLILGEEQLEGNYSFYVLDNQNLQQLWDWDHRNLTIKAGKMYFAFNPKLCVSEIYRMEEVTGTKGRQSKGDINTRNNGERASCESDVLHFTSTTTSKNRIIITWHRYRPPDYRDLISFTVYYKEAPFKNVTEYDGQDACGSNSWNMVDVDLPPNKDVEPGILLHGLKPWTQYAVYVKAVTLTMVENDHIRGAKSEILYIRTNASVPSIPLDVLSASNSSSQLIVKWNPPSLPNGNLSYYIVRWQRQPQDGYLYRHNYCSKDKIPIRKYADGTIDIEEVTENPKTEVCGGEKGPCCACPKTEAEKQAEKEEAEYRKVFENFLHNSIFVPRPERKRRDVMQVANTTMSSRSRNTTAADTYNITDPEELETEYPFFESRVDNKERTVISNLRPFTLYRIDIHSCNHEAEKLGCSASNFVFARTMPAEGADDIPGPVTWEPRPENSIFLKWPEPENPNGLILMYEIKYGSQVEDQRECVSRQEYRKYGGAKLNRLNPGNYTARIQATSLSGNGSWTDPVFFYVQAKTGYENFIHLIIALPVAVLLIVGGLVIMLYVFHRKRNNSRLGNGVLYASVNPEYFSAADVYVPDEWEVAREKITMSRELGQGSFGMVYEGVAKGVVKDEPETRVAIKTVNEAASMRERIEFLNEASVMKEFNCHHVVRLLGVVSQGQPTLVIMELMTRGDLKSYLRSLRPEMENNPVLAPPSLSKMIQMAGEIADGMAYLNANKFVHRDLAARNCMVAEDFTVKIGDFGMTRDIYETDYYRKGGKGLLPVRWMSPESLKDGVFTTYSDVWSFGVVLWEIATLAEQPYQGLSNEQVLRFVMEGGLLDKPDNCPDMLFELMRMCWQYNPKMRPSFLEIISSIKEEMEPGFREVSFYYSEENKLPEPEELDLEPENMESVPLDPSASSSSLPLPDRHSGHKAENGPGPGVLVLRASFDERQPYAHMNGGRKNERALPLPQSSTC
Protocol: as §1

[19] = biological target: IKKb (Homo sapiens, UniProt O14920); settings: 10 μM
Protocol: as §1

[20] = biological target: IRAK4 (Homo sapiens, UniProt Q9NWZ3); settings: 10 μM
Protocol: as §1

[21] = biological target: InsR (Homo sapiens, UniProt P06213); settings: 10 μM
Protocol: as §1

[22] = biological target: JNK2 (Homo sapiens, UniProt P45984); settings: 10 μM
Protocol: as §1

[23] = biological target: KDR (FLK1, VEGFR2) (Homo sapiens, UniProt P35968); settings: 10 μM
Protocol: as §1

[24] = biological target: Lck (Homo sapiens, UniProt P06239); settings: 10 μM
Protocol: as §1

[25] = biological target: Lyn (Homo sapiens, UniProt P07948); settings: 10 μM
Sequence of Lyn (P07948 whole entry): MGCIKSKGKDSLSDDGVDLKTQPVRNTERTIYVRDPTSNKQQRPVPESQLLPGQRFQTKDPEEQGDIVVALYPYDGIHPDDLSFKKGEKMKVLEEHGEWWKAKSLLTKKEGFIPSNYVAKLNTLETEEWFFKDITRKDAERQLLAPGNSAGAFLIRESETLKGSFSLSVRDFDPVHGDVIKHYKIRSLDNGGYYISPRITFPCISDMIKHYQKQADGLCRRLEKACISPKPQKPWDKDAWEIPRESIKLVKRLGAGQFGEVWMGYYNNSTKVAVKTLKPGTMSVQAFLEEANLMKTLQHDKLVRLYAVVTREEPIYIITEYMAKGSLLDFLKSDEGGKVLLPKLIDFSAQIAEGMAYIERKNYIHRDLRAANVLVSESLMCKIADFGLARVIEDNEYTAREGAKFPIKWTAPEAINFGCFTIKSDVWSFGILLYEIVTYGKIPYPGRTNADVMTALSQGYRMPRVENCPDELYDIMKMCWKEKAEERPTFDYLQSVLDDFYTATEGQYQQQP
Protocol: as §1

[26] = biological target: MAPK1 (Homo sapiens, UniProt P28482); settings: 10 μM
Sequence of MAPK1 (P28482 whole entry, species assumed): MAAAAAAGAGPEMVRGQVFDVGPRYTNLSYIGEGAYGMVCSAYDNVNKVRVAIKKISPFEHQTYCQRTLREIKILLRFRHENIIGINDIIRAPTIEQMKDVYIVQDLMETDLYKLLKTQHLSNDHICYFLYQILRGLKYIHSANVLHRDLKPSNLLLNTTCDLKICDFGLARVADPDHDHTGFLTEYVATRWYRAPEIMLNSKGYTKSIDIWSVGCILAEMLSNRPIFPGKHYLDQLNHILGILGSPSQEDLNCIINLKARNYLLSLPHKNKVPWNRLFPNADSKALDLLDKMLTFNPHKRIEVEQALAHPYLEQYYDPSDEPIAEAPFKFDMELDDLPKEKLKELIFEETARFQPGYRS
Protocol: as §1

[27] = biological target: MAPK14 (P38) (Homo sapiens, UniProt Q16539); settings: 10 μM
Protocol: as §1

[28] = test system: MAPK3 (p38); settings: 10 μM
Protocol: as §1

[29] = biological target: MAPKAP2 (Homo sapiens, UniProt P49137); settings: 10 μM
Sequence of MAPKAP2 (P49137 whole entry): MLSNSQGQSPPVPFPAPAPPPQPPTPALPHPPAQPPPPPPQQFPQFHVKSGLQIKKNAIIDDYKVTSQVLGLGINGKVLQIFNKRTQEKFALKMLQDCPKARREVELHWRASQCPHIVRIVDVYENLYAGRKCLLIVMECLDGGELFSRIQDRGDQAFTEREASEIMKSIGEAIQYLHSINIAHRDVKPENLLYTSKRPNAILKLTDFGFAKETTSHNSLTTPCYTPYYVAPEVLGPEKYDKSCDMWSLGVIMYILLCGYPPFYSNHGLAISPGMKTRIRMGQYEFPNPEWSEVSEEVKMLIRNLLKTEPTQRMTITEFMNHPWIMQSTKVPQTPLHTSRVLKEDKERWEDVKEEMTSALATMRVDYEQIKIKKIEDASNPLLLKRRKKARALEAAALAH
Protocol: as §1

- COMPOUND 102 ACTIVITY (% KINASE ACTIVITY) [1]: −0.95%
- COMPOUND 102 ACTIVITY (% KINASE ACTIVITY) [2]: −4.04%
- COMPOUND 102 ACTIVITY (% KINASE ACTIVITY) [3]: 1.51%
- COMPOUND 102 ACTIVITY (% KINASE ACTIVITY) [4]: −6.83%
- COMPOUND 102 ACTIVITY (% KINASE ACTIVITY) [5]: −12.21%
- COMPOUND 102 ACTIVITY (% KINASE ACTIVITY) [6]: 10%
- COMPOUND 102 ACTIVITY (% KINASE ACTIVITY) [7]: −3.93%
- COMPOUND 102 ACTIVITY (% KINASE ACTIVITY) [8]: 0.87%
- COMPOUND 102 ACTIVITY (% KINASE ACTIVITY) [9]: −6.17%
- COMPOUND 102 ACTIVITY (% KINASE ACTIVITY) [10]: −1.5%
- COMPOUND 102 ACTIVITY (% KINASE ACTIVITY) [11]: 0.08%
- COMPOUND 102 ACTIVITY (% KINASE ACTIVITY) [12]: 17.35%
- COMPOUND 102 ACTIVITY (% KINASE ACTIVITY) [13]: 1.03%
- COMPOUND 102 ACTIVITY (% KINASE ACTIVITY) [14]: −1.58%
- COMPOUND 102 ACTIVITY (% KINASE ACTIVITY) [15]: 7.34%
- COMPOUND 102 ACTIVITY (% KINASE ACTIVITY) [16]: −4.64%
- COMPOUND 102 ACTIVITY (% KINASE ACTIVITY) [17]: 2.47%
- COMPOUND 102 ACTIVITY (% KINASE ACTIVITY) ([18]; IGF1R, 10 μM): −20.18%
- inhibition at 10 µM ([18]; inhibition, read-out: insulin-like growth factor receptor activity inhibited by): 20.1%
- COMPOUND 102 ACTIVITY (% KINASE ACTIVITY) [19]: −6.26%
- COMPOUND 102 ACTIVITY (% KINASE ACTIVITY) [20]: 2.25%
- COMPOUND 102 ACTIVITY (% KINASE ACTIVITY) [21]: 16.92%
- COMPOUND 102 ACTIVITY (% KINASE ACTIVITY) [22]: −4.8%
- COMPOUND 102 ACTIVITY (% KINASE ACTIVITY) [23]: 0%
- COMPOUND 102 ACTIVITY (% KINASE ACTIVITY) [24]: 6.28%
- COMPOUND 102 ACTIVITY (% KINASE ACTIVITY) ([25]; Lyn (repeat), repeat experiment, activation): 57%
- COMPOUND 102 ACTIVITY (% KINASE ACTIVITY) ([25]; Lyn (repeat), repeat experiment, activation, listed as COMPOUND 102, 10 µM): 57.11%
- COMPOUND 102 ACTIVITY (% KINASE ACTIVITY) ([25]; Lyn, first screen, activation): 51%
- COMPOUND 102 ACTIVITY (% KINASE ACTIVITY) ([25]; Lyn, first screen, activation, listed as COMPOUND 102, 10 µM): 51.05%
- COMPOUND 102 ACTIVITY (% KINASE ACTIVITY) ([25]; Lyn, third Lyn line of the table): 57%
- COMPOUND 102 ACTIVITY (% KINASE ACTIVITY) [26]: 0.6%
- COMPOUND 102 ACTIVITY (% KINASE ACTIVITY) [27]: 1.74%
- COMPOUND 102 ACTIVITY (% KINASE ACTIVITY) [28]: −6.05%
- COMPOUND 102 ACTIVITY (% KINASE ACTIVITY) [29]: −13.04%
Compound: Cc1cccc(Oc2cnc(=O)[nH]c2)c1 [Compound 102]
